Experimental data taken from BindingDB's records for doi:10.1016/j.bmcl.2012.11.020 (Glaxosmithkline, 2012).

The compounds below were run against Serine/threonine-protein kinase B-raf (Homo sapiens, UniProt P15056) (assay: Inhibition of B-Raf (unknown origin) expressed in mouse 3T3 cells co-expressing FLAG-tagged MEK1 assessed as inhibition of MEK1 phosphorylation after 2 hrs by ELISA).
Serine/threonine-protein kinase B-raf, sequence (P15056 whole entry): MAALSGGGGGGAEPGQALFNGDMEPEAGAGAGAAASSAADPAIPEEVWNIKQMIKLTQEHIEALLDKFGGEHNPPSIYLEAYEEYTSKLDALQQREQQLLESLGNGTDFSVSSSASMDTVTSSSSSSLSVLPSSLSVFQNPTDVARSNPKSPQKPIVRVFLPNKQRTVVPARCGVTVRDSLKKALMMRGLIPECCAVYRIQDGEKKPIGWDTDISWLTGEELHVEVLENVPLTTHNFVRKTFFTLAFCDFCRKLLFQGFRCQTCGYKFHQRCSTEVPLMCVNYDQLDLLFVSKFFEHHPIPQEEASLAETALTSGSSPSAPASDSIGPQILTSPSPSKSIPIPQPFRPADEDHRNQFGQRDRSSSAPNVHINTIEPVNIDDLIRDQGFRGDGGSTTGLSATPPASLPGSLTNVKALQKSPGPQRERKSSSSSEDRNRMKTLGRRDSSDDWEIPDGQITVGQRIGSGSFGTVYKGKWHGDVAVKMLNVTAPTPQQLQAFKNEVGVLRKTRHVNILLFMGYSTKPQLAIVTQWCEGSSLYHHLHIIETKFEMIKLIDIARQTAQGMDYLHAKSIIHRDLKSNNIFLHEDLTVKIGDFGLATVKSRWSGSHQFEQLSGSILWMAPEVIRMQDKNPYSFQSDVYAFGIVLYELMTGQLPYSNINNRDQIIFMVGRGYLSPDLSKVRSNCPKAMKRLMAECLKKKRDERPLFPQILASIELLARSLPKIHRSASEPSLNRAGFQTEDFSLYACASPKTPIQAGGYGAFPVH

IC50 [µM]	SMILES
> 10	Nc1ncc(-c2cccnc2)c2scc(-c3cccc(NC(=O)Nc4ccc(OCc5ccccc5)cc4)c3)c12
0.7	COc1cccc(NC(=O)Nc2cccc(-c3csc4c(-c5cccnc5)cnc(N)c34)c2)c1
4.1	Nc1ncc(-c2cccnc2)c2scc(-c3cccc(NC(=O)NC4CCCCC4)c3)c12
> 10	Cc1noc(C)c1NC(=O)Nc1cccc(-c2csc3c(-c4cccnc4)cnc(N)c23)c1
> 10	Nc1ncc(-c2cccnc2)c2scc(-c3cccc(NC(=O)C4CCCCC4)c3)c12
